Measurements published in patent US11964943B2, “3,5-diarylidenyl-n-substituted-piperid-4-one-derived inhibitors of Stat3 pathway activity and uses thereof” (priority 2017, dated 2024).
“And” between values parts separate entries of the source, which are not always exact repeats. Equal entries are not always repeated. Each block holds one compound with its values, some of them ahead of it.

What was measured:
[1] = tested on: HCT116-oxaliplatin resistant spheroids; test: CellTiter-Glo 3D cell viability assay, HCT116-oxaliplatin resistant spheroids; format: cell-based; conditions: 96 h exposure, 3D CellTiter-Glo
Protocol: (§1) For cell spheroid formation, HCT116-oxaliplatin resistant cells, A2780-cisplatin resistant cells, and HT1080 cells were seeded in Corning® Spheroid opaque-walled 96 well Microplates (ultra-low attachment; Nuclon™ Sphera™, Thermofisher) at densities of 2000 cells/well in 100 μl of cell solution and allowed to grow for 4 days, before any manipulation.
(§2) Spheroid cells were treated by adding 100 μl of 2-fold the desired compound concentration and incubated at 37° C. for 96 h. At the end of drug incubation, both the plates and the CellTitre-Glo® reagent (previously thawn overnight in the fridge) were equilibrated at room temperature for at least 30 min. Subsequently, 100 μl of cell solution were carefully removed from each well, without disrupting the spheroid and equal volume of CellTitre-Glo® reagent was added. Cell lysis was performed by vigorously shaking the plate for 5 min. To stabilize the luminescent signal, the plate was incubated in the dark at RT for another 30 min before luminescence was recorded on a plate reader. The cell viability of treated samples was normalised to the untreated controls.
(§3) The cytotoxicity studies in spheroids were conducted using the CellTiter-Glo® 3D Cell viability assay (Promega) following the instructions of the manufacturer.

[2] = tested on: A2780-cisplatin resistant spheroids; test: CellTiter-Glo 3D cell viability assay, A2780-cisplatin resistant spheroids; format: cell-based; conditions: 96 h exposure, 3D CellTiter-Glo
Protocol: as §1
as §2, with “At” for “Spheroid cells were treated by adding 100 μl of 2-fold the desired compound concentration and incubated at 37° C. for 96 h. At”
as §3

DU145 cells = test: SRB growth inhibition and combination index with cisplatin, DU145; format: cell-based
Protocol: (§4) The affected fractions were calculated from the SRB or MTT assay absorbance values and were registered to derive the respective CI values and isobolograms. A CI value of less than 1 (one) indicates synergy.
(§5) The SRB assay was used to assess cell growth inhibition by IE-8 alone and in combination with cisplatin. […] For combination studies drug treatments were sequential with IE-8 applied first followed by cisplatin for 1 h. […] Absorbance was read at 540 nm and results were normalized to untreated controls. For analysis of GC50 values and statistical significance, non-linear regression analysis with a comparison of fits was performed with the GraphPad Prism 6.0 software.
as §5, with “Drug Combination studies. Sulforhodamine B (SRB) Cell Growth Inhibition Assay. The” for “The”, “8 h” for “IE-8”

A549 cells = test: SRB growth inhibition and combination index with cisplatin, A549; format: cell-based, human
Protocol: as §4, §5
as §5, with “Drug Combination studies. Sulforhodamine B (SRB) Cell Growth Inhibition Assay. The” for “The”, “8 h” for “IE-8”

pStat3^Tyr705 = test: Immunoblotting of phosphorylated Stat3 in cancer cells; format: cell-based, human; conditions: DU145 and A549 cells with constitutively active Stat3, 18 h
Protocol: (§6) Whole cell lysates were prepared by incubation of harvested, trypsinised cells with CelLytic™ lysis buffer (Sigma-Aldrich) supplemented with 1× protease and 1× phosphatase inhibitors (Roche). Protein quantification was carried out using a protein assay kit (Bio-Rad). 40 μg of the lysates were denatured by heating for 5 min at 95° C. in sample buffer containing 100 mM Tris-Cl (pH 6.8), 4% SDS, 10% 2-mercaptoethanol, 20% glycerol, and 0.02% bromophenol blue. Precision Plus Protein Dual colour standards (Bio-Rad) were used as a molecular weight reference. For the detection of STAT3, pSTAT3, α/β tubulin, cleaved PARP, Bcl-2, Bcl-xL, FANCD2, BRCA1, EME1 and MUS81, proteins were separated on a NuPAGE 7% Tris-acetate gel (Life Technologies) and subsequently transferred to polyvinylidene difluoride membranes (Immobilon®-P transfer membrane; Millipore). […] Membranes were blocked for 1 h at ambient temperature in a blocking buffer containing 5% w/v Bovine Serum Albumin (BSA; Sigma-Aldrich) in 1×TBS, 0.1% Tween-20. All proteins were identified by incubation in a 1:1000 dilution of the respective polyclonal antibodies (Cell signaling) in blocking buffer overnight at 4° C. and subsequent incubation for 1 h with an anti-rabbit or anti-mouse secondary antibody (Cell signalling) at a dilution of 1:1000. The α/β tubulin (1:2000; Cell Signaling) and the anti-phospho-histone H2AX Antibody (1:500; Millipore) were used in the denoted dilutions. Antibody binding was visualized by enhanced chemiluminescence (Amersham) on autoradiography film (Kodak-X-Omat). Alternatively Images were captured by the GelDoc-It Imaging System Fusion Fx7 (Vilber Lourmat, Germany).
as §6, with “Immunoblotting. Whole” for “Whole”, “CelLytic™ M” for “CelLytic™”, “pSTAT3, a/0” for “pSTAT3, α/β”, “in 1×TBS” for “in 1×TBS,”, “(Cell signalling)” for “(Cell signaling)”

[3] = tested on: HCT116-oxaliplatin resistant cells; test: Colony formation assay with oxaliplatin; format: cell-based; conditions: 1 μM oxaliplatin alone, 10 days
Protocol: HCT116-oxaliplatin res cells were seeded at 2000 cells/well in 6-well plates and allowed to adhere overnight. The next day, oxaliplatin and IE-8 were added simultaneously. First, the specific amount of cells solution was removed from each well and afterwards the same volume of the appropriate drug dilution was added to achieve the right concentration. IE-8 was diluted in DMA. Cells were also treated with Oxaliplatin and IE-8 alone. The plates were left the incubator and the cells were allowed to grow colonies for 10 days. After 10 days the entire cell solution was removed from each well, which was subsequently washed with 500 μl of PBS. 1 ml of cold 100% methanol was added and the plates were incubated for 30 minutes at 4 C. After a second wash, the cells were stained with 1 ml of […] staining dye for 2-3 minutes, rinsed with water, allowed to dry overnight and the colonies were quantified using a gel imaging system (Fusion Fx7) and its in-built colony counter software.

[4] = tested on: A2780-cisplatin resistant spheroids; test: Spheroid diameter measurement; format: cell-based; conditions: 96 h
Protocol: as §1
The diameters of spheroid cells were determined using Cell^F Imaging Software. A diameter corresponds to the mean value of one horizontal and one vertical measurement.

[5] = cisplatin alone 1 h, 96 h total, SRB

IC50 [1]: 33 µM | IC50 [2]: 29.7 ± 7.81 µM
SMILES: CC1(C)C=C(CN2C/C(=C\c3ccc(F)cc3)C(=O)/C(=C/c3ccc(F)cc3)C2)C(C)(C)N1O [HO-3867, reference compound]

SMILES: O=[N+]([O-])c1ccc2c(c1)S(=O)(=O)C=C2 [Stattic]
combination index analysis with cisplatin (DU145 cells; stattic:cisplatin ratio 1:5): lower levels of synergy within a narrower range of doses | combination index analysis with cisplatin (A549 cells; stattic:cisplatin ratio 1:5): lower levels of synergy | inhibition of Stat3 tyrosine (705) phosphorylation (pStat3) (pStat3^Tyr705): much higher doses are required | IC50 [2]: 9.14 ± 2.74 µM

SMILES: O=C(O)C(=O)O.[NH-][C@@H]1CCCC[C@H]1[NH-].[Pt+2] [Oxaliplatin, reference compound]
number of colonies [3]: about 260

SMILES: COc1cc(/C=C/C(=O)CC(=O)/C=C/c2ccc(O)c(OC)c2)ccc1O [Curcumin]
IC50 [2]: 37 ± 9.4 µM

IC50 [1]: 16.5 µM | IC50 [2]: 24.4 ± 3.36 µM
SMILES: O=C1C(O)=C([C@H]2CC[C@H](c3ccc(Cl)cc3)CC2)C(=O)c2ccccc21 [Atovaquone, reference compound]

SMILES: N.N.[Cl][Pt][Cl] [Cisplatin, reference compound]
Diameter (μm) ([4]; cisplatin 1.75 μM): 1071.4 μm | Diameter (μm) ([4]; cisplatin 3.5 μM): 1047.5 μm | Diameter (μm) ([4]; cisplatin 5.25 μM): 916.4 μm | Diameter (μm) ([4]; cisplatin 7.0 μM): 833.6 μm | Diameter (μm) ([4]; cisplatin 7.0 μM, listed as cisplatin): 834 μm | Diameter (μm) ([4]; cisplatin 8.75 μM): 713.0 μm | IC50 (DU145 cells; [5]): 49.2 µM and 49.3 µM | IC50 (A549 cells; [5]): 77.8 µM and 64.6 µM
